Here are results for 19 molecules from US5610155A, “Condensed diazepinones, processes for preparing them and agents containing these compounds for treating diseases of the central nervous system and for promoting cerebral blood circulation” (Dr. Karl Thomae GmbH, priority 1995, dated 1997).

In test [1] the test system is 24 months old learning-impaired rats. Kind of test: Effect on the memory in the Morris water maze (aged rats). Type of test: in vivo, rat. The conditions noted are these: 24 months old rats, 0.2 mg/kg s.c., 4 days, FIG. 1, vs physiological saline. The procedure:
The tests were carried out using the water maze described by R. G. M. Morris in Learn Motive 12: 239-249 (1981) using the test method described therein.
On the first day, rats which were 24 months old and therefore learning-impaired (n=7 per group) were given 0.2 mg/kg of compound D by subcutaneous route whilst another group of these animals were given physiological saline solution (s.c.).

For test [2], the target named is T1, M2 (Heart) (Rattus norvegicus, UniProt P10980).
T1 construct: The cerebral cortex, heart and salivary glands were removed, washed and homogenised; from tissue; host or cells: heart of male Wistar rats (Chbb: THOM)
T1 sequence (P10980 1-466): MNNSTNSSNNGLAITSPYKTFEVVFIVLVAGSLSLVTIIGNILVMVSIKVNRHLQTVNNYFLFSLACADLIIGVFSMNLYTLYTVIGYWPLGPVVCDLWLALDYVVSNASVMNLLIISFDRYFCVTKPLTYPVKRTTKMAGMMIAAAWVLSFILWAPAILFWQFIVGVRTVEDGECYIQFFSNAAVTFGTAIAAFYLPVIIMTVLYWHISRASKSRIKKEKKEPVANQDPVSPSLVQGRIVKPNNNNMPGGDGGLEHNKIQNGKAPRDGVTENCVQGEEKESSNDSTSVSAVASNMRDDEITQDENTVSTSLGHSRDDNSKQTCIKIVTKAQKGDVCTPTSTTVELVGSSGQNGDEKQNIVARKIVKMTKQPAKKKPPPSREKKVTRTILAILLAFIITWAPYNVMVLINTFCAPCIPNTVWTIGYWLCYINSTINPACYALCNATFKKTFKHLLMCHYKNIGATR
In words: Receptor binding test in vitro, M2 (heart), [3H]NMS. Also noted: species or system rat (male Wistar). The conditions noted are these: 0.3 nM [3H]NMS, 40 min, ambient temperature, pH 7.5.

In test [3] the target is T2, M1 (Cortex) (Rattus norvegicus, UniProt P08482).
T2 construct: The cerebral cortex, heart and salivary glands were removed, washed and homogenised; from tissue; host or cells: cerebral cortex of male Wistar rats (Chbb: THOM)
T2 sequence (P08482 1-460): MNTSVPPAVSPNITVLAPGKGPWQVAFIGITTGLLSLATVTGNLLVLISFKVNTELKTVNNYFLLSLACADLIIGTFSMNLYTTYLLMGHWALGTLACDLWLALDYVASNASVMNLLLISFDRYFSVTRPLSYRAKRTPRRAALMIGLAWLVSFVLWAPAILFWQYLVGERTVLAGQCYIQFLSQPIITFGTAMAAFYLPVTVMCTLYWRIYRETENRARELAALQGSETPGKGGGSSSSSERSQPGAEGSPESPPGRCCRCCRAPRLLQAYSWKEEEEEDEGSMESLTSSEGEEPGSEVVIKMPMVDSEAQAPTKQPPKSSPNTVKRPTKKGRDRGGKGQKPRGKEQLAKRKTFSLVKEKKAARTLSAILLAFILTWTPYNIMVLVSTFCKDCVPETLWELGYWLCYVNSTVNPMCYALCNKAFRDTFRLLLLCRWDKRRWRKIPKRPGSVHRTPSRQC
In words: Receptor binding test in vitro, M1 (cerebral cortex), [3H]pirenzepine. The conditions noted are these: 1 nM [3H]pirenzepine, 90 min, ambient temperature, pH 7.5. On the set-up: species or system rat (male Wistar).

In test [4] the test system is arecoline-induced increase in blood pressure. Kind of test: Investigation for central activity: arecoline test, CNS-penetration in vivo. The conditions noted are these: for ED50: Rattus norvegicus, iv, read-out: ED50, reduction in the arecoline-induced increase in blood pressure. Also noted: species or system rat. The method, then: Principle: Arecoline has both a central and a peripherally active component. […] Cerebroavailable antimuscarinics block this central effect. Method: Male rats weighing 300 g are anaesthetised i.p. with urethane (1.2 g/kg). The trachea is […], the animals are respirated with an air/oxygen mixture (80 breaths per minute). The blood pressure is recorded after canulation of the carotid artery by means of a pressure recorder (Bell and Howell Type 4-327-I). The test substances are administered through the jugular vein ([…]). […] The arecoline is administered (in doses of 0.3 mg/kg) at 15 minute intervals. After 2 comparison values, the test substance is injected in increasing doses 5 minutes before the next administration of arecoline. The results obtained were compared with the average starting values and determined as the percentage inhibition.

Test [5] addresses T3, M3 (Submandibular gland) (Rattus norvegicus, UniProt P08483).
T3 construct: The cerebral cortex, heart and salivary glands were removed, washed and homogenised; from tissue; host or cells: salivary (submandibular) glands of male Wistar rats (Chbb: THOM)
Kind of test: Receptor binding test in vitro, M3 (submandibular/salivary gland), [3H]NMS. On the set-up: species or system rat (male Wistar). The conditions noted are these: 0.3 nM [3H]NMS, 40 min, ambient temperature, pH 7.5.

The conditions of test [6]: literature: Hunter and Roberts 1988; Hunter et al. 1986; Sutherland et al. 1982; Wishaw 1985; cited from earlier work.

Each structure is given as a SMILES string. Entries after “also recorded” stand apart in the source; their conditions may differ.

T3 sequence (P08483 whole entry): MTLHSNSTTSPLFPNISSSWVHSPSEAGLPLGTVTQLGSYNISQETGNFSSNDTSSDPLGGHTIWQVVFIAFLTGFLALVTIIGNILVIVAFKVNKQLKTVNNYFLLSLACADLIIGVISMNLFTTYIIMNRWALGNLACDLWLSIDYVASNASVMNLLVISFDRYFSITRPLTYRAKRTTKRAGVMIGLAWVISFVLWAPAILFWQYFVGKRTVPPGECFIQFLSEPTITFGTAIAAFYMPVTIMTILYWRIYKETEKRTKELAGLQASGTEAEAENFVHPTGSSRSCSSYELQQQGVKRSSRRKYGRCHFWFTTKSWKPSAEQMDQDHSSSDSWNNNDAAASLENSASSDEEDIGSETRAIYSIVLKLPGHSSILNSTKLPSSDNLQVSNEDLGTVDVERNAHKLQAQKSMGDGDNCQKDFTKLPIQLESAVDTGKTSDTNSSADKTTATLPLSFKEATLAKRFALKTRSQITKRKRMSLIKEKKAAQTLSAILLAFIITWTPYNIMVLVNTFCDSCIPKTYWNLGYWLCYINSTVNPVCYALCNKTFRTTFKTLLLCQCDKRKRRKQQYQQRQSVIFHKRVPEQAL

Regarding `CCCC(C)(C)C(=O)N(CC)CCCC1CCN(CC(=O)N2c3ccc(Cl)cc3C(=O)Nc3cccnc32)CC1` [Substance D, 5,11-dihydro-8-chloro-11-[[4-[3-[(2,2-dimethyl-1-oxopentyl)-ethylamino]propyl]-1-piperidinyl]-acetyl]-6H-pyrido[2,3-b][1,4]benzodiazepin-6-one], the “Memory performance in the Morris water maze (in words)” value in test [1] was “improved memory performance; also recorded: reached the same level as the control groups of young rats”. For the same molecule, the Ki in test [2] was 25 nM; in test [3] it was 866 nM; in test [5], 916 nM. In test [4], the ED50 is 5 mg/kg.

Consider `O=C1Nc2cccnc2N(C(=O)CCCCCN2CCCCC2)c2ccccc21` [Substance O, 5,11-dihydro-11-[1-oxo-6-(1-piperidinyl)-1-hexyl]-6H-pyrido[2,3-b][1,4]benzodiazepin-10-one, reference compound], for which the Ki in test [2] was found to be 5 nM; in test [3] it was 10 nM; in test [5] it was 40 nM.

Turning to `CCN(CCCC1CCN(CC(=O)N2c3ccccc3C(=O)Nc3cccnc32)CC1)C(=O)C(C)(C)CC` [Substance A, 5,11-dihydro-11-[[4-[3-[(2,2-dimethyl-1-oxobutyl]-ethylamino]-propyl]-1-piperidinyl]acetyl]-6H-pyrido[2,3-b][1,4]benzodiazepin-6-one], the Ki in test [2] was 25 nM; in test [3], 500 nM; in test [5], 750 nM. Further, the ED50 in test [4] was 4.5 mg/kg.

Consider `CN(CCC1CCCN1C)CC(=O)N1c2ccccc2C(=O)Nc2cccnc21` (stereo not shown) [R], for which the Ki was found to be 3 nM in test [2], 7.1 nM in test [3] and 30 nM in test [5].

Consider `CCN(CCCC1CCN(CC(=O)N2c3ccc(C)cc3C(=O)Nc3cccnc32)CC1)C(=O)C(C)(C)CC` [Substance G, 5,11-dihydro-8-methyl-11-[[4-[3-[(2,2-dimethyl-1oxobutyl)ethylamino]propyl]-1-piperidinyl]acetyl]-6H-pyrido[2,3-b][1,4]benzodiazepin-6-one], for which the Ki in test [2] was determined as 25 nM; in test [3], 600 nM; in test [5], 750 nM. Moreover, the ED50 in test [4] is 5.1 mg/kg.

With `CCN(CC)CC1COCCN1CCCC(=O)N1c2ccccc2C(=O)Nc2cccnc21` (stereo not shown) [Q], the Ki worked out at 20 nM in test [2], 50 nM in test [3] and 50 nM in test [5].

In the case of `CCN(CC)CC1CCCCN1CC(=O)N1c2ccccc2C(=O)Nc2cccnc21` (stereo not shown) [H], the affinity in test [5], expressed as Ki, was 2000 nM.

Take `O=C1Nc2cccnc2N(C(=O)N2CCCC(CCCN3CCCCC3)C2)c2ccccc21` (stereo not shown) [M]: the Ki came to 2 nM in test [2], 13 nM in test [3] and 13 nM in test [5].

As for `CN(CCC1CCCCCN1C)CC(=O)N1c2ccccc2C(=O)Nc2cccnc21` (stereo not shown) [S], the Ki in test [2] is 3 nM; in test [3] it was 16 nM; in test [5], 25 nM.

With `CCCC(C)(C)C(=O)N(CC)CCCCC1CCN(CC(=O)N2c3ccccc3C(=O)Nc3cccnc32)CC1` [Substance C, 5,11-dihydro-11-[[4-[4-[(2,2-dimethyl-1-oxopentyl)-ethylamino]butyl]-1-piperidinyl]acetyl]-6H -pyrido [2,3-b][1,4]benzodiazepin-6-one], the Ki in test [2] was found to be 38 nM; in test [3], 500 nM; in test [5], 875 nM. Besides, in test [4], the ED50 is 2 mg/kg.

In the case of `CCN(CCCC1CCN(CC(=O)N2c3ccc(C)cc3C(=O)Nc3cccnc32)CC1)C(=O)C(C)(C)C` [Substance E, 5,11-dihydro-8-methyl-11-[[4-[3-[(2,2-dimethyl-1-oxopropyl)-ethylamino]propyl]-1-piperidinyl]acetyl]-6H-pyrido[2,3-b][1,4]benzodiazepin-6-one], the Ki in test [2] came to 100 nM; in test [3], 1000 nM; in test [5] it was 1500 nM. Also, the ED50 in test [4] was determined as 2.8 mg/kg.

For `CCN(CC)CCCCC1CCN(CC(=O)N2c3ccccc3C(=O)Nc3cccnc32)CC1` [I], the Ki in test [3] is 20 nM; in test [5], 151 nM.

With `Cc1scc2c1N(C(=O)CCC#CCN1CCCCCC1)c1ccccc1NC2=O` [P], the Ki in test [2] was determined as 7.6 nM; in test [3] it was 35 nM; in test [5], 30 nM.

Turning to `O=C1Nc2cccnc2N(C(=O)CCC#CCN2CCCCC2)c2ccccc21` [J], the results for the Ki in test [2], in test [3] and in test [5] were 120 nM, 794 nM and 1820 nM, respectively.

Regarding `Cc1scc2c1N(C(=O)CN1CCC(CCCN3CCCCC3)CC1)c1ccccc1NC2=O` [N], the results for the Ki in test [2], in test [3] and in test [5] were 2 nM, 7.9 nM and 6 nM, respectively.

On to `CCN(CCCC1CCN(CC(=O)N2c3ccccc3C(=O)Nc3cccnc32)CC1)C(=O)C(C)(C)C` [Substance F, 5,11-Dihydro-11-[[4-[3-[(2,2-dimethyl-1-oxopropyl)ethylamino]propyl]-1-piperidinyl]acetyl]-6H-pyrido[2,3-b][1,4]benzodiazepin-6-one], for which the values for the Ki in test [2], in test [3] and in test [5] were 65 nM, 900 nM and 1500 nM, respectively. The ED50 in test [4] is 6.5 mg/kg.

With `CCCN(CCC)CC1CCCCN1CCNC(=O)N1c2ccccc2C(=O)Nc2cccnc21` (stereo not shown) [L], the Ki in test [2] was determined as 7.9 nM; in test [3], 30 nM. In test [4], the ED50 was over 10 mg/kg. Further, the “Effect on arecoline-mediated central effects / increase in blood pressure (in words)” value in test [4] (rat, i.v.) was “no effect on the increase in blood pressure caused by arecoline”.

Turning to `CCCC(C)(C)C(=O)N(CC)CCCC1CCN(CC(=O)N2c3ccccc3C(=O)Nc3cccnc32)CC1` [Substance B], the Ki in test [2] is 15 nM; in test [3], 150 nM; in test [5], 300 nM. In test [4], the ED50 was determined as 1.3 mg/kg.

Turning to `CN1CCN(CC(=O)N2c3ccccc3C(=O)Nc3cccnc32)CC1` [pirenzepine], in test [6], the “Learning ability and memory performance (in words)” value is “a deterioration in learning ability and memory performance was observed”.

As a reminder, the Ki is a dissociation constant, usually derived from enzyme kinetics or from competition with a known ligand. One may read the ED50 as the dose that gives a 50% effect, or the effect in half of the subjects.
